Our source for the GI50 and TGI values is PubChem BioAssay (NCI).

Among the test systems are SK-MEL-5 melanoma; RPMI-8226 leukemia; MDA-MB-231 breast; IGROV1 ovarian; MALME-3M melanoma; 786-0 renal; CAKI-1 renal; UACC-257 melanoma; OVCAR-5 ovarian; M14 melanoma.
Holding throughout (assay): inhibition of tumour cell growth, NCI panel, 48 h

Values joined by “and” are separate entries in the source; they are usually repeats but may differ in a detail not shown here. Equal values may be shown once.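 Test compounds were applied to cells in 96-well plates for 48 hours at 5 doses. GI50 marks 50% less growth. TGI denotes the concentration required for complete inhibition of growth.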

For the compound `CCCC(=O)Oc1ccc(/C(=C(\C)c2ccc(Cl)cc2)c2ccc(OCCN(CC)CC)cc2)cc1`, the GI50 is 1.75 µM in the test on SK-MEL-5 melanoma; 2.92 µM in the test with RPMI-8226 leukemia; 2.42 µM in the test with MDA-MB-231 breast; 6.99 µM in the test on IGROV1 ovarian; 1.74 µM in the test with MALME-3M melanoma; 1.74 µM in the test on 786-0 renal. The GI50 in the test with CAKI-1 renal is 3.99 µM; with UACC-257 melanoma it was 2.02 µM; in the test with OVCAR-5 ovarian, 4.84 µM; in the test on M14 melanoma, 1.9 µM. Further, the TGI in the test with SK-MEL-5 melanoma is 3.21 µM; with RPMI-8226 leukemia, 9.02 µM; with MDA-MB-231 breast, 5.13 µM; with IGROV1 ovarian, 21.6 µM; with MALME-3M melanoma it was 3.55 µM; in the test on 786-0 renal, 3.5 µM. In addition, the TGI in the test on CAKI-1 renal was 16.3 µM; with UACC-257 melanoma it was 4.18 µM; in the test on OVCAR-5 ovarian, 19.7 µM; in the test with M14 melanoma, 4.36 µM.
Turning to `COc1ccc(-n2nc(C)c3c(Nc4ccc(NC(=O)Nc5cccc(C(F)(F)F)c5)cc4)ncnc32)cc1`, the GI50 in the test on SK-MEL-5 melanoma was 1.75 µM; with RPMI-8226 leukemia, 1.78 µM; with MDA-MB-231 breast, 1.46 µM; with IGROV1 ovarian, 2 µM; with MALME-3M melanoma, 1.59 µM; with 786-0 renal it was 1.56 µM. For the same compound, the GI50 in the test on CAKI-1 renal is 1.46 µM; in the test on UACC-257 melanoma, 1.88 µM; in the test on OVCAR-5 ovarian, 1.76 µM; in the test with M14 melanoma, 1.54 µM. Also, the TGI turned out to be 3.21 µM in the test on SK-MEL-5 melanoma; 4.69 µM in the test with RPMI-8226 leukemia; 3.14 µM in the test on MDA-MB-231 breast; 4.18 µM with IGROV1 ovarian; 3.31 µM with MALME-3M melanoma; 3.03 µM in the test on 786-0 renal. Further, the TGI in the test with CAKI-1 renal is 2.96 µM; in the test with UACC-257 melanoma, 4.18 µM; in the test with OVCAR-5 ovarian it was 4.12 µM; in the test on M14 melanoma it was 3.36 µM.
Regarding `N#CC1=C(N)NC(=O)C(C#N)C12Nc1ccccc1S2` (stereo not given), the GI50 with SK-MEL-5 melanoma is over 100 µM; in the test with RPMI-8226 leukemia, 43.2 µM; in the test with MDA-MB-231 breast it was 29.8 µM; in the test with IGROV1 ovarian, 18 µM; in the test on MALME-3M melanoma, 64 µM; in the test on 786-0 renal, over 100 µM. Also, the GI50 in the test with CAKI-1 renal is over 100 µM; in the test with UACC-257 melanoma it was 39.9 µM; in the test on OVCAR-5 ovarian, over 100 µM; with M14 melanoma it was 87.9 µM. The TGI is over 100 µM in the test on SK-MEL-5 melanoma; over 100 µM in the test with RPMI-8226 leukemia; over 100 µM with MDA-MB-231 breast; 88.4 µM with IGROV1 ovarian; over 100 µM in the test with MALME-3M melanoma; over 100 µM with 786-0 renal. The TGI in the test with CAKI-1 renal, in the test on UACC-257 melanoma, in the test on OVCAR-5 ovarian and in the test with M14 melanoma was over 100 µM throughout.
`COc1ccc2c(=O)c(-c3cc(OC)c(OC)cc3OC)coc2c1`: the TGI in the test on SK-MEL-5 melanoma is over 100 µM; in the test on RPMI-8226 leukemia it was over 40.3 µM; in the test on MDA-MB-231 breast, over 100 µM; in the test with IGROV1 ovarian it was over 100 µM; in the test on MALME-3M melanoma it was over 100 µM; in the test on 786-0 renal, over 100 µM. The TGI in the test on CAKI-1 renal, in the test on UACC-257 melanoma, with OVCAR-5 ovarian and in the test on M14 melanoma was over 100 µM each time.
With `COc1ccc(/C=C\c2cc(OC)c(OC)c(OC)c2)cc1NC(=O)/C=C/c1ccc(OC)c(OC)c1`, the GI50 with SK-MEL-5 melanoma was 2.89 µM; with RPMI-8226 leukemia, 3.95 µM; in the test on MDA-MB-231 breast, 25.5 µM; with IGROV1 ovarian, 18.8 µM; with MALME-3M melanoma, over 100 µM; with 786-0 renal it was 4.79 µM. Further, the GI50 with CAKI-1 renal was 3.55 µM; in the test with UACC-257 melanoma, over 100 µM; with OVCAR-5 ovarian, 7.69 µM; in the test with M14 melanoma, 4.3 µM. The TGI in the test on SK-MEL-5 melanoma, in the test with RPMI-8226 leukemia, in the test with MDA-MB-231 breast, in the test with IGROV1 ovarian, with MALME-3M melanoma and with 786-0 renal was over 100 µM in each case. In addition, the TGI with CAKI-1 renal, in the test with UACC-257 melanoma, in the test on OVCAR-5 ovarian and in the test on M14 melanoma was over 100 µM in each case.
On to `O=C(O)c1cccc([As]=[As]c2cccc(C(=O)O)c2)c1` (stereo not given), for which the TGI is 96.1 µM in the test on SK-MEL-5 melanoma; 59.5 µM in the test on RPMI-8226 leukemia; 39.9 µM in the test on MDA-MB-231 breast; over 100 µM in the test with IGROV1 ovarian; 43.9 µM in the test with MALME-3M melanoma; 71.1 µM in the test with 786-0 renal. Besides, the TGI was 37.1 µM in the test on CAKI-1 renal, over 100 µM in the test on UACC-257 melanoma, 53.8 µM in the test with OVCAR-5 ovarian and over 100 µM in the test with M14 melanoma.
As for `CCN(Cc1cc(Cl)cc(C)c1O)Cc1c(O)ccc2ccccc12`, the TGI in the test with SK-MEL-5 melanoma is 29.4 µM; in the test with RPMI-8226 leukemia, over 100 µM; in the test with MDA-MB-231 breast, 35.4 µM; in the test with IGROV1 ovarian, 31.1 µM; in the test on MALME-3M melanoma, 29.8 µM; in the test on 786-0 renal it was 34 µM. Moreover, the TGI amounted to 28.8 µM in the test with CAKI-1 renal, 30.4 µM in the test on UACC-257 melanoma, 35.2 µM with OVCAR-5 ovarian and 35.9 µM with M14 melanoma.
On to `CC(=O)CC[N+](C)(C)C`, for which the TGI in the test with SK-MEL-5 melanoma was determined as 59.6 µM; with RPMI-8226 leukemia, 26 µM; in the test on MDA-MB-231 breast it was 38.6 µM; in the test with IGROV1 ovarian, 53.4 µM; in the test with MALME-3M melanoma, 24.2 µM; in the test with 786-0 renal, 59.3 µM. Besides, the TGI with CAKI-1 renal was 3.83 µM; with UACC-257 melanoma it was 54.6 µM; in the test on OVCAR-5 ovarian, 67.6 µM; with M14 melanoma, 52.1 µM.
As for `Nc1c(C(=O)c2cccc(-c3cccnc3)c2)cnn1-c1ccc(F)cc1`, the GI50 with SK-MEL-5 melanoma, with RPMI-8226 leukemia, with MDA-MB-231 breast, in the test with IGROV1 ovarian, with MALME-3M melanoma and in the test with 786-0 renal was over 25 µM in each case. Moreover, the GI50 in the test with CAKI-1 renal, in the test with UACC-257 melanoma, in the test with OVCAR-5 ovarian and in the test with M14 melanoma was over 25 µM throughout. The TGI in the test on SK-MEL-5 melanoma, in the test on RPMI-8226 leukemia, in the test on MDA-MB-231 breast, with IGROV1 ovarian, in the test with MALME-3M melanoma and in the test on 786-0 renal was over 25 µM in each case. The TGI with CAKI-1 renal, with UACC-257 melanoma, in the test on OVCAR-5 ovarian and with M14 melanoma was over 25 µM throughout.
In the case of `COC(=O)CNC(=O)C(=O)c1c(O)c(O)c(C(C)C)c2cc(C)c(-c3c(C)cc4c(C(C)C)c(O)c(O)c(C(=O)C(=O)NCC(=O)OC)c4c3O)c(O)c12`, the GI50 in the test on SK-MEL-5 melanoma is 4.29 µM; with RPMI-8226 leukemia it was 2.72 µM; in the test on MDA-MB-231 breast, 1.99 µM; in the test with IGROV1 ovarian, 1.92 µM; with MALME-3M melanoma, 2.23 µM; in the test on 786-0 renal it was 2.35 µM. Also, the GI50 is 3.74 µM in the test with CAKI-1 renal, 7.89 µM in the test on UACC-257 melanoma, 1.56 µM with OVCAR-5 ovarian and 2.09 µM with M14 melanoma. For the same compound, the TGI in the test with SK-MEL-5 melanoma was 11.3 µM; in the test on RPMI-8226 leukemia, over 50 µM; with MDA-MB-231 breast it was 9.64 µM; with IGROV1 ovarian, 8.94 µM; in the test with MALME-3M melanoma, 11 µM; with 786-0 renal, 8.77 µM. The TGI in the test with CAKI-1 renal was determined as 14.3 µM; in the test on UACC-257 melanoma it was 20.9 µM; in the test with OVCAR-5 ovarian, 9.13 µM; in the test on M14 melanoma it was 9.9 µM.
On to `CCc1nc(N)nc(N)c1C#CC(C)c1ccc(-c2ccncc2)cc1Cl` (stereo not given), for which the GI50 with SK-MEL-5 melanoma is 0.00753 µM and 0.0461 µM; in the test with RPMI-8226 leukemia it was 0.145 µM and 0.0946 µM; in the test with MDA-MB-231 breast, 0.555 µM and 0.511 µM; with IGROV1 ovarian, < 0.005 µM and 0.0323 µM; in the test with MALME-3M melanoma, 0.0378 µM and 0.307 µM; in the test with 786-0 renal, 0.00501 µM and 0.0128 µM. The GI50 in the test with CAKI-1 renal is 0.0259 µM; in the test on UACC-257 melanoma, 0.0286 µM and 0.0348 µM; in the test with OVCAR-5 ovarian it was 0.115 µM and 0.133 µM; in the test with M14 melanoma, < 0.005 µM and 0.0121 µM. In addition, the TGI with SK-MEL-5 melanoma is 0.781 µM and 1.98 µM; in the test on RPMI-8226 leukemia, 1.7 µM and 10.8 µM; in the test with MDA-MB-231 breast, 7.11 µM and 19.8 µM; in the test with IGROV1 ovarian it was 6.71 µM and 19.1 µM; in the test with MALME-3M melanoma it was 1.93 µM and 13.1 µM; in the test on 786-0 renal it was 4.06 µM and 6.63 µM. The TGI in the test with CAKI-1 renal was 5.07 µM; in the test with UACC-257 melanoma, 2.34 µM and 12.1 µM; in the test on OVCAR-5 ovarian it was 6.17 µM and 18.6 µM; in the test on M14 melanoma, 1.61 µM and 10.3 µM.
Take `Cc1cc(NC(=O)NCCOc2ccc(N3C(N)=NC(N)=NC3(C)C)cc2Cl)ccc1S(=O)(=O)F`: the GI50 is 1.19 µM with SK-MEL-5 melanoma; 3.46 µM in the test with RPMI-8226 leukemia; 6.11 µM in the test with MDA-MB-231 breast; 0.545 µM in the test on IGROV1 ovarian; 7.46 µM with MALME-3M melanoma; 5.02 µM in the test with 786-0 renal. The GI50 is 55.4 µM in the test on CAKI-1 renal, 4.1 µM in the test with UACC-257 melanoma, 1.44 µM in the test with OVCAR-5 ovarian and 4.1 µM in the test with M14 melanoma. Further, the TGI with SK-MEL-5 melanoma is 11.4 µM; in the test with RPMI-8226 leukemia it was over 55 µM; in the test with MDA-MB-231 breast, over 77.9 µM; in the test on IGROV1 ovarian, over 100 µM; with MALME-3M melanoma, 41.1 µM; in the test on 786-0 renal, over 100 µM. The TGI is over 100 µM in the test with CAKI-1 renal, over 49.1 µM in the test on UACC-257 melanoma, over 100 µM with OVCAR-5 ovarian and over 100 µM in the test with M14 melanoma.
